Assay results taken from patent US9783585B2, “Compositions and methods for increasing the expression and signalling of proteins on cell surfaces” (JOHNS HOPKINS UNIVERSITY, priority 2013, dated 2017).

Tests used:
mOREG = biological target: T1, mOREG (Mus musculus, UniProt Q920P2); assay: Luciferase reporter assay (CRE Firefly:Renilla), mOREG constructs; type: cell-based; conditions: Rho-mOREG, Lucy-mOREG and Lucy-Rho-mOREG, no RTP1S, eugenol 100-300 μM, P≦0.05, 300 μM vs 0 μM
T1 construct: The mOR-EG full-length construct, containing N-terminal Flag/Rho tags; expressed in transfected cells; host or cells: HEK293T
T1 sequence (Q920P2 1-313): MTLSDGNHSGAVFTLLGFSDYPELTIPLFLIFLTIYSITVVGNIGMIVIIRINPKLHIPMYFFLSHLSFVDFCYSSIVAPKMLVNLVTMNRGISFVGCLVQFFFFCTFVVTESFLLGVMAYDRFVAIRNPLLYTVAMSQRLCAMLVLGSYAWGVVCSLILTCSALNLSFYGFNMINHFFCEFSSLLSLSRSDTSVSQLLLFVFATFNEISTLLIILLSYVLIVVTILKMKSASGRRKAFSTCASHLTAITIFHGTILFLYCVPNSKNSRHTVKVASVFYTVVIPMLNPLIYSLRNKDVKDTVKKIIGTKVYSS
Protocol: (§1) Luciferase Assay. The luciferase assay was performed as previously described. Briefly, ORs were transfected into HEK293T cells along with constructs encoding for CREB-dependent luciferase (Firefly) and a constitutively expressed luciferase (Renilla). OR activation leads to a rise in cAMP which drives an increase in Firefly luciferase expression. Firefly activity is normalized to the activity of the Renilla luciferase to control for variation in cell number and transfection efficiency. Data were collected using a FLUOstar Omega automated platereader (BMG LabTech, Cary, N.C.). For some experiments, RTP1S was also transfected.
Statistical Analysis. One-way ANOVA analysis followed by the Student-Newman Keuls test was performed on the luciferase reporter assay to compare the doses of isovaleric acid (0.1-5 mM) or eugenol (100-300 μM) to the non-treated control (0 μM). As each condition was performed in triplicate, the analyses were done with an n=3, and P values≦0.05 were deemed significant. One-way ANOVE followed by Student-Newman Keuls was also used to analyze the surface expression data in FIG. 7. […]
As mOREG is one of the ORs that reach the cell surface under every condition tested, we expressed the OR with and without the Lucy and Rho tags and assessed its response to eugenol.

Olfr691 = biological target: T2, Olfr691 (Mus musculus, UniProt Q8VGW5); assay: Luciferase reporter assay (CRE Firefly:Renilla), Olfr691 constructs; type: cell-based; conditions: 0.1-5 mM isovaleric acid
T2 construct: The other full-length ORs were amplified using primers which added appropriate restriction sites; expressed in transfected cells; host or cells: HEK293T
T2 sequence (Q8VGW5 1-322): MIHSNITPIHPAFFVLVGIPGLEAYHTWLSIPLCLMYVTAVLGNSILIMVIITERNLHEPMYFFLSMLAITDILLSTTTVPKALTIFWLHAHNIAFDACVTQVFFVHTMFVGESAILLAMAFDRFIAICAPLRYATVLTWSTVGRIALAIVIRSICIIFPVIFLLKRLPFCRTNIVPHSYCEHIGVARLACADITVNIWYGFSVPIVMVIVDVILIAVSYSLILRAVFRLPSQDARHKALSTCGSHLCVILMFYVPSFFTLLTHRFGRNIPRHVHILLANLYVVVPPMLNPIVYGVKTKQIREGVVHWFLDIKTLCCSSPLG
Protocol: as §1
Statistical Analysis. One-way ANOVA analysis followed by the Student-Newman Keuls test was performed on the luciferase reporter assay to compare the doses of isovaleric acid (0.1-5 mM) or eugenol (100-300 μM) to the non-treated control (0 μM). As each condition was performed in triplicate, the analyses were done with an n=3, and P values≦0.05 were deemed significant. One-way ANOVE followed by Student-Newman Keuls was also used to analyze the surface expression data in FIG. 7. A Student T-Test was performed on the ELISA to assess the significance of the increased protein expression (Control construct vs. Lucy construct for each OR, n=4 for each condition). P values≦0.05 were deemed significant. In both the luciferase reporter assay and the ELISA, the error bars represent the SEM.
To determine whether Lucy-tagged ORs expressed on the cell surface can still respond to their ligands in the absence of RTP1S, and to ensure that the Lucy tag is not altering ligand binding or detection, we assayed for a functional ligand response using a luciferase reporter assay. In this assay, OR-ligand binding leads to an increase in cAMP which drives the expression of a CRE luciferase. An increase in the Firefly (CRE-dependent luciferase): Renilla (constitutively activated luciferase) ratio indicates OR activation. Previously, it was determined that Olfr691 responds to isovaleric acid. […]

SMILES: C=CCc1ccc(O)c(OC)c1 [eugenol]
- OR activation (Firefly:Renilla ratio) (mOREG): dose-dependent activation

SMILES: CC(C)CC(=O)O [isovaleric acid]
- OR activation (Firefly:Renilla ratio) (Olfr691; Lucy-Rho-Olfr691 with and without RTP, P<0.007 vs 0 mM): dose-dependent manner
- OR activation (Firefly:Renilla ratio) (Olfr691; Rho-Olfr691 co-expressed with RTP1S, P≦0.002 vs 0 mM): dose-dependent increase
- OR activation (Firefly:Renilla ratio) (Olfr691; Rho-Olfr691 without RTP1S): not significantly activated at any concentration
